Laboratory results taken from ChEMBL document CHEMBL3045774, “Viridepyronone, a new antifungal 6-substituted 2H-pyran-2-one produced by Trichoderma viride” (2003).
In brackets after ≈: the same amount, converted by molar mass. Activity calls are given as the source filed them. The rule behind the calls is not given here.

What was measured:
Athelia rolfsii [1] = assay: Antifungal activity against Athelia rolfsii assessed as growth inhibition at 6.9 x 10^-2 M after 3 days by paper disk assay relative to control; assay type: functional; settings: Agroathelia rolfsii, 72 h; read-out: GI
Athelia rolfsii [2] = assay: Antifungal activity against Athelia rolfsii assessed as growth inhibition after 3 days; assay type: functional; settings: Agroathelia rolfsii, 72 h
Athelia rolfsii [3] = assay: Antifungal activity against Athelia rolfsii assessed as mycelial growth inhibition at 246 ug/mL after 3 days; assay type: functional, organism-based; settings: Agroathelia rolfsii

MIC (Athelia rolfsii [2]): 196 µg/mL (≈ 1090 µM)
SMILES: CC(=O)CCCc1cccc(=O)o1 [VIRIDEPYRONONE]
inhibition of growth at 69000 µM (Athelia rolfsii [1]): 48%
growth inhibition (GI) (Athelia rolfsii [3]): Active
